The values that follow come from patent EP1501797B1, “3-(SUBSTITUTED AMINO)-1H-INDOLE-2-CARBOXYLIC ACID ESTER AND 3-(SUBSTITUTED AMINO)-BENZO[B]THIOPHENE-2-CARBOXYLIC ACID ESTER DERIVATIVES AS INTERLEUKIN-4 GENE EXPRESSION INHIBITORS” (Aventis Pharmaceuticals Inc., priority 2002, dated 2003).

One assay concerns IL-4 mRNA. Kind of assay: Human Th2 IL-4 transcriptional assay (Taqman, GAPDH normalised). It is filed as cell-based. The conditions noted are these: 18 hours, stimulated CD3/CD28 = 100%. Here is the method: RNAs were isolated from the harvested cells and analyzed for IL-4 message by Taqman. GAPDH message was used as an internal standard for normalization. The percent activity was calculated by treating the values from not drug treated, anti-CD3 and anti-CD28 stimulated Th2 cells as 100%. […] In the second experiment IL-4 protein levels were also determined by standard ELISA in culture supernatants as described earlier. […]
For orientation: Real-time PCR tracks product formation cycle by cycle.

In a further assay the test system is IgG1 Anti-DNP Antibody. Kind of assay: In vivo model of humoral immunity in mice (DNP-KLH), IgG1 anti-DNP antibody. The method, then: Female Balb/c mice, each weighing approximately 20 to 25 grams each, aged 5 to 8 weeks are used. Each experiment uses 30 mice.
The antigen for immunization is 2,4-dinitrophenyl (DNP) or 2,4,6-trinitrophenyl (TNP) conjugated to keyhole limpet haemocyanin (KLH). The antigen (100 µg/mouse) is adsorbed to an adjuvant (colloidal aluminum hydroxide) and given i.p. to animal in a total volume of 0.2-0.3 ml.
Animals are randomly divided into 5 groups of 6 mice each. Group 1 is a positive control group, Groups 2, 3, and 4 are test compound groups, and Group 5 is a vehicle control group. Compounds may be given by i.n., i.p., p.o., s.c., i.m. or i.v. administration. […] On day 8 after the immunization, mice are bled by cardiac puncture under anesthesia (isoflurane), and the serum samples are stored at -20°C until required for antibody analysis. The anesthetized animals are euthanized with overdosage of sodium pentobarbital at the end of experiment. Statistical analysis of the data are performed using ANOVA.
Mice are immunized with a hapten carrier conjugate, DNP-KLH, and anti-DNP antibody levels are determined in a isotype specific manner as described above. […]

Where “and” joins values, the source holds several entries; their conditions need not be identical. Equal entries are not always repeated. Where two headings read alike, the source gives them in different places.

For the compound `O=C(O)c1[nH]c2ccccc2c1Nc1ccncc1` [Example 28, 3-(4-Pyridinylamino)-1H-indole-2-carboxylic acid], the mrna remaining at 10 µM in the assay with IL-4 mRNA (read-out: RNA Exp #1 % activity) came out at 44%; in the assay on IL-4 mRNA (read-out: RNA Exp #2 % activity) it was 45%. The “IgG1 Anti-DNP Antibody Titer” value in the assay with IgG1 Anti-DNP Antibody (individual animals 1-6, dose not stated) is 72.42 and 185.22 and 19.83 and 40.19 and 83.11 and 37.83. For the same compound, the “IgG1 Anti-DNP Antibody Titer Mean+/-SE” value in the assay with IgG1 Anti-DNP Antibody (vehicle 167.69 +/-18.19, dose not stated) is on record as 73.10 +/-24.38. In addition, the “IgG1 Anti-DNP Antibody Titer Inhibition” value in the assay with IgG1 Anti-DNP Antibody (versus vehicle) was determined as 56.5%.
